# Assay results from PubChem BioAssay (NCI).
#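 In this assay, cells in 96-well plates receive the compound at five concentrations for 48 hours. Endpoints are linearly interpolated between the surrounding concentrations. Here, GI50 denotes the concentration required for 50% inhibition of growth. TGI: concentration producing complete growth inhibition.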
# Tests used:
# Experiment in all cases: NCI tumour cell line growth inhibition, 48 h
# [1] = test system: SF-539 CNS
# [2] = test system: CAKI-1 renal
# [3] = test system: MDA-MB-435
# [4] = test system: KM12 colon
# [5] = test system: RXF 393 renal
Structure (SMILES),TGI [1],TGI [2],TGI [3],TGI [4],TGI [5],GI50 [1],GI50 [2],GI50 [3],GI50 [4],GI50 [5]
CC1CCC(=O)C(C(=O)CC2CC(=O)N(C)C(=O)C2)C1 (stereo not drawn),> 100 µM,> 100 µM,> 100 µM,> 100 µM,> 100 µM,,,,,
Cc1c(N=Nc2ccc(Cl)cc2)c(-c2ccccc2)n(C2OC(CO)C(O)C(O)C2O)c(=S)c1C#N (stereo not drawn),41 µM,34 µM,22.2 µM,35.4 µM,28.7 µM,,,,,
CN(C)CCCC12CCCCC1=Nc1ccccc12 (stereo not drawn),> 100 µM,> 100 µM,> 100 µM,> 100 µM,> 100 µM,,,,,
Cn1c(=O)c(-c2ccccc2)c(N=[N+]=[N-])c2ccccc21,> 100 µM,> 100 µM,> 100 µM,> 100 µM,> 100 µM,,,,,
CC(=O)Oc1ccc2c(C)cc(=O)oc2c1OC(C)=O,> 100 µM,,> 100 µM,> 100 µM,,,,,,
Cc1cc2oc(=N)c(C#N)c(C)c2cc1C,> 100 µM,> 100 µM,> 100 µM,> 100 µM,87.3 µM,,,,,
Cc1cc(S(=O)(=O)Nc2n[nH]c(N)n2)c(SCC(=O)O)cc1Cl,> 10 µM,> 10 µM,,> 10 µM,> 10 µM,,,,,
O=c1c(/C=C/c2c(O)ccc3ccccc23)nnc2sc(-c3cccc(Br)c3)nn12,> 100 µM,56.8 µM,> 100 µM,63.6 µM,,,,,,
S=C(S)NCNC(=S)S.[Zn+2],> 100 µM,> 100 µM,> 100 µM,> 100 µM,> 100 µM,,,,,
COC(CNC(=O)C(C)NC(=O)/C=C/c1ccccc1)OC (stereo not drawn),> 100 µM,> 100 µM,> 100 µM,> 100 µM,> 100 µM,,,,,
CN(C)C1(N(C)C)Oc2c(c(=O)n(C)c(=O)n2C)C(c2ccccc2)C1(F)F (stereo not drawn),,> 100 µM,> 100 µM,> 100 µM,> 100 µM,,,,,
Cc1nc2c(nc1C)-c1[nH]c3c(c1C(=O)C2=O)CCCC3=O,3.12 µM,,1.48 µM,4.43 µM,2.41 µM,,,,,
C=C(C)[C@@H]1CC[C@]2(C(=O)NC3CCCCC3)CC[C@]3(C)[C@H](CC[C@@H]4[C@@]5(C)CCCNC(C)(C)[C@@H]5CC[C@]43C)[C@@H]12,3.11 µM,2.93 µM,3.15 µM,3.64 µM,,1.69 µM,1.56 µM,1.7 µM,1.92 µM,
Oc1[nH]c2ccccc2c1N=NC(=S)Nc1cccc(Cl)c1,22.4 µM,44.9 µM,99.4 µM,58.8 µM,48.7 µM,,,,,
N#Cc1c(N)n(-c2cccc(C(=O)O)c2)c(=O)c2cc([N+](=O)[O-])ccc12,,> 100 µM,> 100 µM,> 100 µM,,,,,,
CCC(C)OC(=O)/C(Br)=C1/OC(=O)c2ccccc2-c2ccccc21 (stereo not drawn),52.2 µM,> 100 µM,> 100 µM,61 µM,21.5 µM,,,,,
N#CCCN(C(=O)Nc1ccccc1)[C@H]1CCCC[C@@H]1N(C(=O)Nc1ccccc1)c1ccccc1,> 100 µM,> 100 µM,> 100 µM,> 100 µM,> 100 µM,,,,,

Structure (SMILES),TGI [1],TGI [2],TGI [3],TGI [4],TGI [5],GI50 [1],GI50 [2],GI50 [3],GI50 [4],GI50 [5]
O=c1cc(-c2cccc3ccccc23)[nH]c2ncccc12,,> 100 µM,0.00404 µM,,,0.0159 µM,,,,11.9 µM
COC(=O)c1cc2ccc(N)nc2[nH]c1=O,> 100 µM,> 100 µM,> 100 µM,> 100 µM,> 100 µM,,,,,
O=C(Cn1c[n+](CC(=O)c2ccc(-c3ccccc3)cc2)c2ccccc21)Nc1cccc2cccnc12,3.06 µM,6.16 µM,,,,1.62 µM,2.18 µM,,,
CCOC(=O)NC(Nc1ccc(S(=O)(=O)Nc2nc(C)cc(C)n2)cc1)(C(=O)OCC)C(F)(F)F (stereo not drawn),> 100 µM,> 100 µM,> 100 µM,> 100 µM,> 100 µM,,,,,
COc1ccc(P2(=S)OC(C)(C)C(C)(C)O2)cc1,> 100 µM,> 100 µM,> 100 µM,> 100 µM,,,,,,
C[C@H](CCC(=O)O)[C@H]1CC[C@H]2[C@@H]3CC[C@@H]4C[C@H](O)CC[C@]4(C)[C@H]3C[C@H](O)[C@]12C,99 µM,> 100 µM,> 100 µM,> 100 µM,> 100 µM,,,,,
Fc1cc(-c2cc(-c3ccccc3)no2)c(Cl)cc1Cl,> 17.2 µM,> 100 µM,> 35.9 µM,> 58.4 µM,16.6 µM,,,,,
NNC(=O)c1n[nH]nc1C(=O)NN,,32.6 µM,> 100 µM,> 100 µM,> 100 µM,,,,,
O=C1/C(=C/c2ccccc2S)N=C(c2ccccc2)N1c1nc2c(Cl)cc(Cl)cc2s1,40.8 µM,> 100 µM,48.2 µM,88.1 µM,58 µM,,,,,
CC(=O)c1[nH]c(NCc2ccccc2)c(C(=S)Nc2ccccc2)c1N,32.1 µM,98.2 µM,33.9 µM,36.9 µM,35.6 µM,,,,,
COc1cc(C2c3cc4c(cc3OC3(OC)COC(=O)C23)OCO4)cc(OC)c1OC(C)=O (stereo not drawn),2.25 µM,> 100 µM,2.23 µM,> 100 µM,7.49 µM,,,,,
O=C(/C=C/c1cc2ccccc2o1)N1CCN(c2ccccn2)CC1,> 100 µM,> 100 µM,> 100 µM,> 100 µM,> 100 µM,,,,,
CCOC(=O)C12OC(CCC1=O)C(C(=O)OC)=C2C(=O)OC (stereo not drawn),> 10 µM,> 10 µM,> 10 µM,> 10 µM,> 10 µM,,,,,
CC(=O)c1c(C)n([O-])c2cc(Cl)c(Cl)cc2[n+]1=O,72.5 µM,58.1 µM,69.7 µM,33.5 µM,> 100 µM,,,,,
CCCCNC(=S)Nc1nc(C(=O)NNC(=S)Nc2ccccc2)cs1,> 100 µM,> 100 µM,> 100 µM,> 100 µM,,,,,,
COC(=O)C1=C(C(=O)NNc2ccccc2)N(c2cccnc2Cl)C(c2ccccc2)=CC1c1ccccc1 (stereo not drawn),> 100 µM,> 100 µM,> 100 µM,> 100 µM,,,,,,
COC(=O)C(Cc1c[nH]c2ccccc12)NP(=O)(O)OCC1OC(n2cc(I)c(=O)[nH]c2=O)CC1O (stereo not drawn),> 100 µM,> 100 µM,> 100 µM,> 100 µM,,,,,,
